According to the supplement of paper PMC11061612:

Assays:
[1] = system: RC-K8 (B-Cell Non-Hodgkin's Lymphoma); experiment: Bliss excess, mean over the matrix (fraction); higher = more synergy
Method in brief: (§1)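 Cell lines in DMEM/F12 or RPMI with 10% FBS were plated in 1536-well plates, held 24 hours at 37°C, 5% CO2, then given two-drug dose matrices for 72 hours (DMSO typically 0.2%). Viability was read by CellTiter-Glo 2.0 luminescence and scaled as inhibition from 0 (vehicle wells) to 1 (blank wells). Combination Emax is the second-highest inhibition in the matrix; Bliss excess is observed combination effect minus expected EA + EB − EA·EB, EA and EB being single-agent effects.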

[2] = system: ME-1 (Acute Myeloid Leukemia); experiment: as above
Method in brief: as §1

[3] = system: LS-180 (Colorectal Carcinoma); experiment: as above
Method in brief: as §1

[4] = system: LNCaP-Clone-FGC (Prostate Carcinoma); experiment: as above
Method in brief: as §1

KELLY (Neuroblastoma) = experiment: as above
Method in brief: as §1

[5] = system: Ramos-2G6-4C10 (Burkitt's Lymphoma); experiment: as above
Method in brief: as §1

[6] = system: Daoy (Other Solid Carcinomas); experiment: combination Emax (second highest fraction inhibited in the dose matrix, 72 h); higher = more inhibition; extreme values may be limits of the assay
Method in brief: as §1

42-MG-BA (Glioblastoma) = experiment: as above
Method in brief: as §1

[7] = system: HuP-T4 (Pancreatic Carcinoma); experiment: as above
Method in brief: as §1

[8] = system: Calu-3 (Lung Adenocarcinoma); experiment: as above
Method in brief: as §1

[9] = system: LNCaP-Clone-FGC (Prostate Carcinoma); experiment: as above
Method in brief: as §1

[10] = system: CAL-148 (Breast Carcinoma); experiment: as above
Method in brief: as §1

AGS (Gastric Carcinoma) = experiment: as above
Method in brief: as §1

[11] = system: NCI-H2085 (Non-Small Cell Lung Carcinoma); experiment: as above
Method in brief: as §1

[12] = system: MDA-MB-361 (Breast Carcinoma); experiment: as above
Method in brief: as §1

[13] = system: TE-9 (Esophageal Squamous Cell Carcinoma); experiment: as above
Method in brief: as §1

[14] = system: Ramos-2G6-4C10 (Burkitt's Lymphoma); experiment: as above
Method in brief: as §1

[15] = system: DoTc2-4510 (Cervical Carcinoma); experiment: as above
Method in brief: as §1

[16] = system: HO-1-N-1 (Oral Cavity Carcinoma); experiment: as above
Method in brief: as §1

[17] = system: HCC-78 (Lung Adenocarcinoma); experiment: as above
Method in brief: as §1
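Throughout, for Bliss excess, mean over the matrix: after 72 h of two-drug dosing.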

Structure (SMILES) | Bliss excess [1] | Bliss excess [2] | Bliss excess [3] | Bliss excess [4] | Bliss excess (KELLY (Neuroblastoma)) | Bliss excess [5] | combination Emax [6] | combination Emax (42-MG-BA (Glioblastoma)) | combination Emax [7] | combination Emax [8] | combination Emax [9] | combination Emax [10] | combination Emax (AGS (Gastric Carcinoma)) | combination Emax [11] | combination Emax [12] | combination Emax [13] | combination Emax [14] | combination Emax [15] | combination Emax [16] | combination Emax [17]
Cn1cnc2c(F)c(Nc3ccc(Br)cc3Cl)c(C(=O)NOCCO)cc21 [Selumetinib] + C=CCn1c(=O)c2cnc(Nc3ccc(N4CCN(C)CC4)cc3)nc2n1-c1cccc(C(C)(C)O)n1 [AZD1775] (first compound max 10 µM, partner max 1 µM) | -0.0714 | -0.0255 | -0.0585 | -0.15 | -0.0658 | -0.0956 | 0.844 | 0.282 | 0.396 | 0.143 | 0.625 | 0.849 | 0.932 | 0.271 | 0.819 | 0.231 | 0.997 | 0.251 | 0.718 | 0.345
Cn1cnc2c(F)c(Nc3ccc(Br)cc3Cl)c(C(=O)NOCCO)cc21 [Selumetinib] + CC(C)n1c(=O)n(C)c2cnc3cc(F)c(-c4ccc(OCCCN5CCCCC5)nc4)cc3c21 [AZD1390] (first compound max 10 µM, 7x7, partner max 0.3 µM) | -0.0253 | 0.0338 | -0.0519 | -0.0381 | -0.0177 | -0.0211 | 0.126 | 0.185 | 0.293 | 0.115 | 0.0956 | 0.158 | 0.842 | 0.191 | 0.12 | 0.13 | 0.137 | 0.144 | 0.506 | 0.123
Cn1cnc2c(F)c(Nc3ccc(Br)cc3Cl)c(C(=O)NOCCO)cc21 [Selumetinib] + CCN(CCO)CCCOc1ccc2c(Nc3cc(CC(=O)Nc4cccc(F)c4)[nH]n3)ncnc2c1 [AZD2811] (first compound max 10 µM, 7x7, partner max 1 µM) | 0.0763 | -0.0296 | -0.0541 | 0.0253 | -0.0709 | -0.0321 | 0.356 | 0.447 | 0.421 | 0.134 | 0.284 | 0.927 | 0.954 | 0.492 | 0.193 | 0.175 | 0.117 | 0.224 | 0.737 | 0.267
Cn1cnc2c(F)c(Nc3ccc(Br)cc3Cl)c(C(=O)NOCCO)cc21 [Selumetinib] + C[C@@H]1COCCN1C2=NC(=NC(=C2)C3(CC3)[S@](=N)(=O)C)C4=C5C=CNC5=NC=C4 [AZD6738] (first compound max 10 µM, 7x7, partner max 10 µM) | 0.0091 | -0.0752 | -0.0516 | -0.0018 | -0.015 | -0.0714 | 0.882 | 0.53 | 0.568 | 0.408 | 0.673 | 0.825 | 0.986 | 0.35 | 0.795 | 0.147 | 0.847 | 0.392 | 0.763 | 0.537
CC(=O)Nc1cccc(-n2c(=O)n(C3CC3)c(=O)c3c(Nc4ccc(I)cc4F)n(C)c(=O)c(C)c32)c1 [Trametinib] + Cc1nc(-c2cn3c(n2)-c2ccc(-c4cnn(C(C)(C)C(N)=O)c4)cc2OCC3)n(C(C)C)n1 [Taselisib] (first compound max 1 µM, 7x7, partner max 10 µM) | 0.0907 | 0.118 | 0.0957 | -0.0056 | 0.132 | -0.0053 | 0.622 | 0.971 | 0.832 | 0.972 | 0.813 | 0.986 | 1 | 0.52 | 0.976 | 0.824 | 0.121 | 0.841 | 0.991 | 0.712
CC1(C)CCC(CN2CCN(c3ccc(C(=O)NS(=O)(=O)c4ccc(NCC5CCOCC5)c([N+](=O)[O-])c4)c(Oc4cnc5[nH]ccc5c4)c3)CC2)=C(c2ccc(Cl)cc2)C1 [Venetoclax] + C1CN(CCC1(C(=O)N[C@@H](CCO)C2=CC=C(C=C2)Cl)N)C3=NC=NC4=C3C=CN4 [Capivasertib] (first compound max 1 µM, 7x7, partner max 3 µM) | -0.0173 | 0 | -0.0173 | -0.0464 | 0.0017 | 0.0177 | 0.21 | 0.518 | 0.0995 | 0.174 | 0.916 | 0.966 | 0.316 | 0.329 | 0.474 | 0.192 | 0.173 | 0.245 | 0.258 | 0.276
CC1(C)CCC(CN2CCN(c3ccc(C(=O)NS(=O)(=O)c4ccc(NCC5CCOCC5)c([N+](=O)[O-])c4)c(Oc4cnc5[nH]ccc5c4)c3)CC2)=C(c2ccc(Cl)cc2)C1 [Venetoclax] + C=CCn1c(=O)c2cnc(Nc3ccc(N4CCN(C)CC4)cc3)nc2n1-c1cccc(C(C)(C)O)n1 [AZD1775] (first compound max 1 µM, partner max 1 µM) | -0.0082 | 0.0289 | -0.0559 | -0.0599 | 0.0593 | 0.127 | 0.873 | 0.287 | 0.378 | 0.218 | 0.689 | 0.952 | 0.595 | 0.398 | 0.865 | 0.691 | 0.984 | 0.633 | 0.745 | 0.701
CC1(C)CCC(CN2CCN(c3ccc(C(=O)NS(=O)(=O)c4ccc(NCC5CCOCC5)c([N+](=O)[O-])c4)c(Oc4cnc5[nH]ccc5c4)c3)CC2)=C(c2ccc(Cl)cc2)C1 [Venetoclax] + CCN(CCO)CCCOc1ccc2c(Nc3cc(CC(=O)Nc4cccc(F)c4)[nH]n3)ncnc2c1 [AZD2811] (first compound max 1 µM, 7x7, partner max 1 µM) | 0.0214 | -0.0118 | -0.0106 | -0.0706 | 0.0038 | 0.0321 | 0.439 | 0.534 | 0.263 | 0.175 | 0.272 | 0.933 | 0.346 | 0.46 | 0.334 | 0.154 | 0.269 | 0.235 | 0.687 | 0.225
CC1(C)CCC(CN2CCN(c3ccc(C(=O)NS(=O)(=O)c4ccc(NCC5CCOCC5)c([N+](=O)[O-])c4)c(Oc4cnc5[nH]ccc5c4)c3)CC2)=C(c2ccc(Cl)cc2)C1 [Venetoclax] + CN(C)CCCOc1ccc(-c2ccc3ncc4c(c3c2)n(C2CCOCC2)c(=O)n4C)cn1 [AZD0156] (first compound max 1 µM, 7x7, partner max 1 µM) | 0.0282 | -0.0045 | -0.0099 | -0.0503 | 0.0158 | 0.0676 | 0.168 | 0.367 | 0.144 | 0.121 | 0.35 | 0.716 | 0.221 | 0.186 | 0.261 | 0.141 | 0.627 | 0.268 | 0.53 | 0.181
CC1(C)CCC(CN2CCN(c3ccc(C(=O)NS(=O)(=O)c4ccc(NCC5CCOCC5)c([N+](=O)[O-])c4)c(Oc4cnc5[nH]ccc5c4)c3)CC2)=C(c2ccc(Cl)cc2)C1 [Venetoclax] + COc1cc(Nc2ncc3c(n2)-c2ccc(Cl)cc2C(c2c(F)cccc2OC)=NC3)ccc1C(=O)O [Alisertib] (first compound max 1 µM, 7x7, partner max 10 µM) | 0.024 | 0.0669 | -0.008 | 0.0008 | 0.0343 | 0.0209 | 0.932 | 0.59 | 0.355 | 0.171 | 0.298 | 0.74 | 0.557 | 0.597 | 0.773 | 0.369 | 0.474 | 0.421 | 0.876 | 0.475
CC1(C)CCC(CN2CCN(c3ccc(C(=O)NS(=O)(=O)c4ccc(NCC5CCOCC5)c([N+](=O)[O-])c4)c(Oc4cnc5[nH]ccc5c4)c3)CC2)=C(c2ccc(Cl)cc2)C1 [Venetoclax] + C[C@@H]1COCCN1C2=NC(=NC(=C2)C3(CC3)[S@](=N)(=O)C)C4=C5C=CNC5=NC=C4 [AZD6738] (first compound max 1 µM, 7x7, partner max 10 µM) | -0.0294 | 0.0345 | -0.0174 | -0.0645 | 0.0209 | -0.0389 | 0.9 | 0.678 | 0.394 | 0.265 | 0.684 | 0.888 | 0.72 | 0.534 | 0.884 | 0.274 | 0.789 | 0.603 | 0.871 | 0.661
CC1(C)CCC(CN2CCN(c3ccc(C(=O)NS(=O)(=O)c4ccc(NCC5CCOCC5)c([N+](=O)[O-])c4)c(Oc4cnc5[nH]ccc5c4)c3)CC2)=C(c2ccc(Cl)cc2)C1 [Venetoclax] + C[C@@H](Nc1cc(F)cc(F)c1)c1cc(C(=O)N(C)C)cc2c(=O)cc(N3CCOCC3)oc12 [AZD8186] (first compound max 1 µM, 7x7, partner max 3 µM) | 0.018 | 0.0239 | -0.0286 | -0.0066 | 0.0068 | 0.0107 | 0.176 | 0.391 | 0.195 | 0.0911 | 0.809 | 0.263 | 0.106 | 0.354 | 0.372 | 0.129 | 0.221 | 0.197 | 0.152 | 0.261
